According to PubChem BioAssay AID2060615 (Molecular Pharmacology Branch, DTP, NCI, 2025):

System: 496974-208-R-J2-PDC complex spheroids, growth % test/control
Assay: Anticancer human tumor 496974-208-R-J2-PDC patient-derived pancreatic carcinoma cell line growth inhibition [CLK]
Conditions: for IC50: curve of first compound; for viability, T/C: stronger effect = lower value
From the text: A high-throughput screen of multi-cell type tumor spheroids was designed to identify active combinations of […] and targeted small molecules. Complex spheroids include a stromal component modeled by human endothelial cells (HUVEC) and fibroblasts modeled by human mesenchymal stem cells (MSCs). The concentration ranges selected for each drug and investigational agent were based upon clinically achievable concentrations if the clinical Cmax of the agent was known.
Compounds. The drugs and investigational agents: cirtuvivint (SM08502; NSC835563), CC-671 (NSC850746), vemurafenib (NSC761431), tapotoclax (NSC804041), sotorasib (NSC818433), adagrasib (NSC831453), MRTX-1133 (NSC836407), BAY2416964 (NSC825713), copanlisib (NSC816437), inavolisib (NSC800729), abemaciclib (NSC768073), osimertinib (NSC779217), entinostat (NSC756642), eltanexor (KPT-8602, NSC794443), venetoclax (NSC766270), ceralasertib (NSC777638), bortezomib (NSC756655), olaparib (NSC753686), talazoparib (NSC767125), alisertib (NSC759677), peposertib (NSC802822), gemcitabine (NSC613327), 5-fluorouracil (NSC19893), SN-38 (NSC673596), oxaliplatin (NSC266046), paclitaxel (NSC125973), and doxorubicin (NSC123127), were obtained from the National Cancer Institute (NCI) Developmental Therapeutics Program Chemical Repository. The FDA-approved anticancer drug set is available from the Developmental Therapeutics Program at https://dtp.cancer.gov/organization/dscb/obtaining/available plates.htm. […] The stock solutions were prepared in dimethyl sulfoxide (DMSO, Sigma-Aldrich, St. Louis, MO, cat. D2650), except for the platinum complexes which were prepared in saline (Quality Biological, Gaithersburg, MD, cat. 114-055-101), at 800-fold the tested concentration and stored at -70 degrees C prior to their use. All drugs and investigational agents were tested over a range starting from a high concentration at or near the clinical Cmax and decreasing in half-log increments. If the clinical Cmax for an agent had not been determined, the highest concentration tested was 10 microM.
Cell Culture. All cells were maintained in an incubator at 37 degrees C and 5% CO2 with 95% humidity. The PDC lines were cultured according to standard operating procedures established by the NCI PDMR. Briefly, all PDCs were thawed and cultured in Matrigel-coated flasks prepared with a working solution of 1X Ham's F-12 nutrient mix, without supplementation (Invitrogen, Waltham, MA, cat. 11765054), 100 U/mL penicillin-streptomycin (Invitrogen, cat. 15140122), and 2.5% Matrigel (Corning Inc., Corning, NY, cat. 354248) for the first three passages. The 947758-054-R-J2-PDC line was cultured in 6B/Colon 1A media, which includes advanced DMEM/F-12 (Thermo Fisher Scientific, cat. 12634028), 10 mM HEPES (Thermo Fisher Scientific, cat. 15630080), 1X GlutaMAX supplement (Thermo Fisher Scientific, cat. 35050061), 0.1 mg/mL primocin (InvivoGen, cat. ant-pm-2), 10% defined fetal bovine serum, heat inactivated (HyClone Laboratories Inc., cat. SH30070.03HI), 1.25 mM N-Acetyl-L-cysteine (Sigma-Aldrich, cat. A9165), 10 mM nicotinamide (Sigma-Aldrich, cat. N0636), 1X B-27 supplement (Thermo Fisher Scientific, cat. 17504044), 1X N-2 supplement (Thermo Fisher Scientific, cat. 17502048), and 10 microM Y-27632 dihydrochloride (Tocris Bioscience, cat. 1254). The 876862-298-R-J1-PDC was cultured in 6E media, which includes all 6B/Colon 1A media components plus 50% L-WRN conditioned media (ATCC, cat. CRL-3276), 50 ng/mL recombinant human EGF recombinant protein (hEGF; Thermo Fisher Scientific, cat. PHG0311), 10 ng/mL recombinant human fibroblast growth factor 10 (hGFG-10; PeproTech, cat. 100-26), 1 ng/mL recombinant human fibroblast growth factor 2 (hFGF-2; PeproTech, cat. 100-18B), and 1 µM prostaglandin E2 (PGE2; Tocris, cat. 2296). The 227483-062-R1-J1-PDC line was cultured in Panc media, containing all 6E components except hFGF-2, with the addition of 500 nM SB-431542 (Selleckchem, cat. S1067) and 10 nM gastrin (Tocris, cat. 3006). […]

[1] = second compound 0.0316 µM, first compound 0.0316 µM
[2] = second compound 0.0316 µM, first compound 0.1 µM
[3] = second compound 0.0316 µM, first compound 0.316 µM
[4] = second compound 0.0316 µM, first compound 1 µM
[5] = second compound 0.0316 µM, first compound 3.16 µM
[6] = second compound 0.0316 µM, first compound 10 µM
[7] = second compound 0.1 µM, first compound 0.0316 µM
[8] = second compound 0.1 µM, first compound 0.1 µM
[9] = second compound 0.1 µM, first compound 0.316 µM
[10] = second compound 0.1 µM, first compound 1 µM
[11] = second compound 0.1 µM, first compound 3.16 µM
[12] = second compound 0.1 µM, first compound 10 µM
[13] = second compound 0.316 µM, first compound 0.0316 µM
[14] = second compound 0.316 µM, first compound 0.1 µM
[15] = second compound 0.316 µM, first compound 0.316 µM
[16] = second compound 0.316 µM, first compound 1 µM
[17] = second compound 0.316 µM, first compound 3.16 µM
[18] = second compound 0.316 µM, first compound 10 µM
[19] = second compound 1 µM, first compound 0.0316 µM
[20] = second compound 1 µM, first compound 0.1 µM
[21] = second compound 1 µM, first compound 0.316 µM
[22] = second compound 1 µM, first compound 1 µM
[23] = second compound 1 µM, first compound 3.16 µM
[24] = second compound 1 µM, first compound 10 µM
[25] = second compound 3.16 µM, first compound 0.0316 µM
[26] = second compound 3.16 µM, first compound 0.1 µM
[27] = second compound 3.16 µM, first compound 0.316 µM
[28] = second compound 3.16 µM, first compound 1 µM
[29] = second compound 3.16 µM, first compound 3.16 µM
[30] = second compound 3.16 µM, first compound 10 µM
[31] = second compound 10 µM, first compound 0.0316 µM
[32] = second compound 10 µM, first compound 0.1 µM
[33] = second compound 10 µM, first compound 0.316 µM
[34] = second compound 10 µM, first compound 1 µM
[35] = second compound 10 µM, first compound 3.16 µM
[36] = second compound 10 µM, first compound 10 µM
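Further: spheroids exposed to the drugs for 7 days before readout.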
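Wherever viability, T/C is given: 100% = DMSO vehicle control wells.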

## C=C(F)C(=O)N1CCN(c2nc(OCC3CCCN3C)nc3c2CCN(c2cccc4cccc(Cl)c24)C3)CC1CC#N (centres undefined) + CN1CCN(c2cc(C(=O)Nc3cc4cc(-c5cnn(C)c5)ccc4cn3)ccn2)CC1
Second compound 0.0316 µM
  IC50: 5320 nM
Second compound 0.1 µM
  IC50: 4440 nM
Second compound 0.316 µM
  IC50: < 31.6 nM
Second compound 1 µM
  IC50: < 31.6 nM
Second compound 3.16 µM
  IC50: < 31.6 nM
Second compound 10 µM
  IC50: < 31.6 nM
[1]
  viability, T/C: 107%
[2]
  viability, T/C: 106%
[3]
  viability, T/C: 89.9%
[4]
  viability, T/C: 117%
[5]
  viability, T/C: 88.8%
[6]
  viability, T/C: 3.02%
[7]
  viability, T/C: 86.1%
[8]
  viability, T/C: 88.8%
[9]
  viability, T/C: 75.8%
[10]
  viability, T/C: 86.6%
[11]
  viability, T/C: 70.8%
[12]
  viability, T/C: 0.72%
[13]
  viability, T/C: 7.07%
[14]
  viability, T/C: 8.92%
[15]
  viability, T/C: 8.59%
[16]
  viability, T/C: 7.85%
[17]
  viability, T/C: 6.67%
[18]
  viability, T/C: 1.1%
[19]
  viability, T/C: 0.58%
[20]
  viability, T/C: 0.48%
[21]
  viability, T/C: 1.51%
[22]
  viability, T/C: 0.33%
[23]
  viability, T/C: 1.52%
[24]
  viability, T/C: 2.06%
[25]
  viability, T/C: 0.33%
[26]
  viability, T/C: 0.52%
[27]
  viability, T/C: 1.57%
[28]
  viability, T/C: 0.45%
[29]
  viability, T/C: 0.2%
[30]
  viability, T/C: 1.09%
[31]
  viability, T/C: 0.35%
[32]
  viability, T/C: 0.35%
[33]
  viability, T/C: 0.31%
[34]
  viability, T/C: 0.32%
[35]
  viability, T/C: 0.74%
[36]
  viability, T/C: 0.22%

## CC(CO)NC(=O)c1cc(-c2ccc(Cl)cc2)nn(-c2cnn(C)c2)c1=O (centres undefined) + CN1CCN(c2cc(C(=O)Nc3cc4cc(-c5cnn(C)c5)ccc4cn3)ccn2)CC1
Second compound 0.0316 µM
  IC50: > 10000 nM
Second compound 0.1 µM
  IC50: > 10000 nM
Second compound 0.316 µM
  IC50: < 31.6 nM
Second compound 1 µM
  IC50: < 31.6 nM
Second compound 3.16 µM
  IC50: < 31.6 nM
Second compound 10 µM
  IC50: < 31.6 nM
[1]
  viability, T/C: 100%
[2]
  viability, T/C: 103%
[3]
  viability, T/C: 104%
[4]
  viability, T/C: 97.6%
[5]
  viability, T/C: 79.8%
[6]
  viability, T/C: 53.3%
[7]
  viability, T/C: 80.9%
[8]
  viability, T/C: 90.1%
[9]
  viability, T/C: 73.7%
[10]
  viability, T/C: 80%
[11]
  viability, T/C: 71.3%
[12]
  viability, T/C: 55%
[13]
  viability, T/C: 6.47%
[14]
  viability, T/C: 7.73%
[15]
  viability, T/C: 7.09%
[16]
  viability, T/C: 6.92%
[17]
  viability, T/C: 7.31%
[18]
  viability, T/C: 10.6%
[19]
  viability, T/C: 0.48%
[20]
  viability, T/C: 0.63%
[21]
  viability, T/C: 0.82%
[22]
  viability, T/C: 0.41%
[23]
  viability, T/C: 0.57%
[24]
  viability, T/C: 3.08%
[25]
  viability, T/C: 0.49%
[26]
  viability, T/C: 0.49%
[27]
  viability, T/C: 0.55%
[28]
  viability, T/C: 0.4%
[29]
  viability, T/C: 1%
[30]
  viability, T/C: 0.92%
[31]
  viability, T/C: 0.3%
[32]
  viability, T/C: 0.27%
[33]
  viability, T/C: 1.54%
[34]
  viability, T/C: 0.29%
[35]
  viability, T/C: 0.35%
[36]
  viability, T/C: 1.18%
